Test: Concentration required for inhibition of serine/threonine protein phosphatase calcineurin (CAN)

CC[C@@H]1/C=C(\C)C[C@H](C)C[C@H](OC)[C@H]2O[C@@](O)(C(=O)C(=O)N3CCCC[C@H]3C(=O)O[C@H](/C(C)=C/[C@@H]3CC[C@@H](OCCCc4ccccc4)[C@H](OC)C3)[C@H](C)[C@@H](O)CC1=O)[C@H](C)C[C@@H]2OC [C32-O-Phenalkyl ether derivative of Ascomycin]
IC50: 14 nM

CC[C@@H]1/C=C(\C)C[C@H](C)C[C@H](OC)[C@H]2O[C@@](O)(C(=O)C(=O)N3CCCC[C@H]3C(=O)O[C@H](/C(C)=C/[C@@H]3CC[C@@H](OCCc4ccccc4)[C@H](OC)C3)[C@H](C)[C@@H](O)CC1=O)[C@H](C)C[C@@H]2OC [C32-O-Phenalkyl ether derivative of Ascomycin]
IC50: 7.2 nM
